According to patent US20140171475A1, “ANIMAL ECTOPARASITE-CONTROLLING AGENT” (SUMITOMO CHEMICAL COMPANY, LIMITED, priority 2011, published 2014):

Legend:
Type in all cases: in vivo
[1] = system: Haemaphysalis longicornis (young ticks) on dog (beagle); test: Dropping application against dog-infested ticks; conditions: dropping application 20 mg/kg
Experimental: The previous day of a dropping application, 100 test ticks (Haemaphysalis longicornis, young ticks) were deposited on a dog (beagle). Before the dropping application, infested ticks were counted.
The present […] compound (13) (1.5 g) was dissolved in diethylene glycol monoethyl ether (6.0 g) to prepare a test solution. Said test solution was directly dropped on the skin of the neck and back of the dog while pushing aside fur thereon at a rate of 0.1 ml per 1 kg of the dog's body weight (dose amount: 20 mg/kg). This is referred to as a test group. On the other hand, diethylene glycol monoethyl ether alone was applied dropwise to a placebo group.
Two (2) days after the application, the number of living ticks, which were infesting the dogs, was examined. When the examination was completed, all infested ticks were removed from the dogs.
Both of […] (14) days and 28 days after the application, 100 test ticks (Haemaphysalis longicornis, young ticks) were repeatedly deposited on a dog (beagle) respectively. Two (2) days after the repeated deposition, the number of living ticks, which were infesting the dogs, was examined respectively. When each of the examination was completed, all infested ticks were removed from the dogs.
(§1) The infestation rate and control rate were calculated by the following formulae: […]
(§2) Method of calculating infestation rate and control rate at the initial stage (2 days) after the application:
(§3) Infestation rate (%) at X days after application=(number of living ticks at X days/number of living ticks before application)×100
(§4) Control rate (%) at X days after application {(infestation rate of test group before application infestation rate of test group at X days)/infestation rate of test group before application}×100
(§5) Method of calculating infestation rate and control rate at both 16 days and 30 days after the application:
Infestation rate (%) at X days after application=(number of living ticks at X days/number of living ticks repeatedly deposited)×100 […]

[2] = system: Haemaphysalis longicornis (young ticks) on dog (beagle); test: Oral administration against dog-infested ticks; conditions: oral gelatin capsule 40 mg/kg
Experimental: The previous day of an oral administration, 100 test ticks (Haemaphysalis longicornis, young ticks) were deposited on a dog (beagle). Before the oral administration, infested ticks were counted.
A gelatin capsule in which the present benzylamide compound (13) was filled into a gelatin capsule so that the amount of the present benzylamide compound […] administered was 40 mg per 1 kg of the dog's body weight was orally administered to the dog conpulsively. This is referred to as a test group. On the other hand, a geratin capsule alone was orally administered to a placebo group.
Two (2) days after the oral administration, the number of living ticks, which were infesting the dogs, was examined. When the examination was completed, all infested ticks were removed from the dogs.
as §1, §2, §3
Control rate (%) at X days after application {(infestation rate of test group before application−infestation rate of test group at X days)/infestation rate of test group before application}×100 […]

[3] = system: Haemaphysalis longicornis (young ticks) on mouse; test: Dropping application against mouse-infested ticks; conditions: topical, 48 h, 0.1% w/v solution, 200 μL dropwise to whole body surface of mouse, 2 days after application, read-out: Mortality
Experimental: The previous day of a dropping application, 30 test ticks (Haemaphysalis longicornis, young ticks) were deposited on a mouse. Before the dropping application, uninfested ticks were removed.
Any one of the present benzylamide compounds (12), (13), (15), (28), (29), (30), (31), (32), (33), (34), (36), (37) and (38) (5 mg) was dissolved in a mixture (5 mL) of propylene carbonate and diethylene glycol monoethyl ether in equal volume to prepare a 0.1% w/v solution. Said solution (200 μL) was applied dropwise to the whole body surface of a mouse with a pipette. To a control group, the mixture (200 μL) alone was applied. Said application was repeated 3 times per group.
Two (2) days after the application, the number of dead ticks was examined and the mortality was calculated by the following formula:
Mortality (%)=100×(number of dead ticks/infested ticks before dropping application)

[4] = system: Haemaphysalis longicornis (young ticks) on mouse; test: Oral administration against mouse-infested ticks; conditions: test solution 20 mg/10 mL at 10 mL per 1 kg mouse body weight, 2 days after administration
Experimental: The previous day of an oral administration, 30 test ticks (Haemaphysalis longicornis, young ticks) were deposited on a mouse. Before the oral administration, uninfested ticks were removed.
The present benzylamide compound (13) (20 mg) was dissolved in dimethylformamide (680 mg), and thereto a corn oil was added to prepare a test solution (10 mL). Said test solution was orally administered to the mouse at the rate of 10 mL per 1 kg of the body weight of the mouse with a gastric sonde. To a control group, a 7% dimethylformamide/corn oil solution alone was orally administered. Each administration was repeated 3 times per group.
Two (2) days after the administration, the number of dead ticks was examined and the mortality was calculated by the following formula:
Mortality (%)=100×(number of dead ticks/infested ticks before oral administration)

[5] = system: Ctenocephalides felis fleas on cat; test: Dropping application against cat-infested fleas
Experimental: The previous day of a dropping application, 50 test fleas (Ctenocephalides felis, adult ticks) were deposited on a cat. Before the dropping application, infested flaes were counted.
Each of the present benzylamide compound (13) (specified weight: 0.375 g, 0.75 g and 1.5 g) was dissolved in diethylene glycol monoethyl ether (6.0 g) to prepare a test solution. Said test solution was directly dropped on the skin of the neck and back of the cat while pushing aside fur thereon at a rate of 0.1 ml per 1 kg of the cat's body weight (dose amount: 5 mg/kg, 10 mg/kg and 20 mg/kg). This is referred to as a test group. On the other hand, diethylene glycol monoethyl ether alone was applied dropwise to a placebo group.
Two (2) days after the application, the number of living fleas, which were infesting the cats, was examined. When the examination was completed, all infested fleas were removed from the cats.
Both of 14 days and 28 days after the application, 50 test fleas (Ctenocephalides felis, adult ticks) were repeatedly deposited on a cat respectively. Two (2) days after the repeated deposition, the number of living ticks, which were infesting the […], was examined respectively. When each of the examination was completed, all infested ticks were removed from the dogs.
as §1, §2
Infestation rate (%) at X days after application=(number of living fleas at X days/number of living fleas before application)×100
as §4, §5
Infestation rate (%) at X days after application=(number of living fleas at X days/number of living fleas repeatedly deposited)×100
Control rate (%) at X days after application {(infestation rate of placebo group at X days−infestation rate of test group at X days)/infestation rate of placebo group after X days}×100
In addition, if an infestation rate of a test group is higher than a placebo group, then the control rate is deemed to be 0%.

O=C(NCc1cc(C2=NOC(c3cc(Cl)cc(Cl)c3)(C(F)(F)F)C2)ccc1Cl)C1CC1 (stereo not drawn) [Compound (13)]
Tick control rates (%) at X days after the application, X = 2 (days) ([1]; 2 days): 35% | Tick control rates (%) at X days after the application, X = 16 (days) ([1]; 16 days (re-infested at 14 days)): 100% | Tick control rates (%) at X days after the application, X = 30 (days) ([1]; 30 days (re-infested at 28 days)): 100% | Tick control rates (%) at 2 days after the administration [2]: 91% | pest or weed control at 0.1 % strength [3]: ≥ 60% | Mortality [4]: ≥ 70% | Flea control rate (%) at X days after the application ([5]; dropping application 5 mg/kg, 2 days): 92% | Flea control rate (%) at X days after the application ([5]; dropping application 5 mg/kg, 16 days): 97% | Flea control rate (%) at X days after the application ([5]; dropping application 5 mg/kg, 30 days): 97% | Flea control rate (%) at X days after the application ([5]; dropping application 10 mg/kg, 2 days): 100% | Flea control rate (%) at X days after the application ([5]; dropping application 10 mg/kg, 16 days): 100% | Flea control rate (%) at X days after the application ([5]; dropping application 10 mg/kg, 30 days): 100% | Flea control rate (%) at X days after the application ([5]; dropping application 20 mg/kg, 2 days): 100% | Flea control rate (%) at X days after the application ([5]; dropping application 20 mg/kg, 16 days): 100% | Flea control rate (%) at X days after the application ([5]; dropping application 20 mg/kg, 30 days): 100%
